Reference: patent US20090227619A1, “Harmine derivatives, intermediates used in their preparations, preparation processes and use therefo” (priority 2003, published 2009)
Where two headings read alike, the source gives them in different places.

Columns and labels:
PLA-801 = assay: In vitro cytotoxicity, IC50 by MTT method, PLA-801; type: cell-based
Experimental: (§1) Culture medium powder RPMI1640 was dissolved in a proper amount of tri-distilled water according to the instruction of the product. […] It was the basic culture solution. The complete culture solution was added with FBS having a final concentration of 10%, 100 U/ml penicillin and 100 µg/ml streptomycin. The solution was fully stirred by a magnetic blender, and the pH of the solution was adjusted to 6.8-7.0. The volume was kept constant. After being filtered and disinfected, the solution was kept into several containers which were sealed and stored at 4° C.
(§2) The cells were placed in a culture dish followed by the addition of complete culture liquid RPMI1640 and then cultured in a incubator comprising 5% CO2 at 37° C. In the exponential growth phase, the cells grew vigorously. If the culture liquid became yellow, the liquid should be replaced instantly.
(§3) The cells, at a concentration of 10^5/ml, were inoculated at a 96-pore culture plate. In each pore, 100 μl cells were inoculated. The cells were placed in a CO2 incubator until the cells were in the logarithmic growth phase. The samples to be tested were added according to the preset concentration gradient. For each gradient, the test was conducted at least three times. An equivalent amount of solvent for dissolving the samples was added in the control group. After 48 h of culture, each pore was added 20 μl MTT (5 mg/ml). The cells were cultured at 37° C. for 4 h. After the supernatant was carefully removed, 100 μl DMSO was added in each pore. The plate was agitated for about 10 minutes such that the precipitates were dissolved. After that, OD value was identified with a Microplate Reader at the wavelength of 490 nm. The survival rate of the cells at various concentrations was calculated according to the following formula:
(§4) Survival rate %=average OD value of the sample group/average OD value of the control group×100%
(§5) Plots of log survival rate of the cells vs. concentration of the medicament were constructed, and the IC50 value of each sample was calculated according to graphing methods.

BGC-823 = assay: In vitro cytotoxicity, IC50 by MTT method, BGC-823; type: cell-based; settings: Homo sapiens, BGC-823
Experimental: as §1, §2, §3, §4, §5

Lovo = assay: In vitro cytotoxicity, IC50 by MTT method, Lovo; type: cell-based; settings: Homo sapiens
Experimental: as §1, §2, §3, §4, §5

NIH3T3 = assay: In vitro cytotoxicity, IC50 by MTT method, NIH3T3; type: cell-based; settings: Mus musculus
Experimental: as §1, §2, §3, §4, §5

Hela = assay: In vitro cytotoxicity, IC50 by MTT method, Hela; type: cell-based; settings: Homo sapiens
Experimental: as §1, §2, §3, §4, §5

Bel-7402 = assay: In vitro cytotoxicity, IC50 by MTT method, Bel-7402; type: cell-based; settings: Homo sapiens, Bel-7402
Experimental: as §1, §2, §3, §4, §5

HepG2 = assay: In vitro cytotoxicity, IC50 by MTT method, HepG2; type: cell-based, human; settings: Homo sapiens
Experimental: as §1, §2, §3, §4, §5

[1] = PLA-801 cell strain, read-out: IC50 PLA-801
[2] = BGC823 cell strain, read-out: IC50 BGC823
[3] = Lovo cell strain, read-out: IC50 Lovo
[4] = NIH3T3 cell strain, read-out: IC50 NIH3T3
[5] = Hela cell strain, read-out: IC50 Hela
[6] = Bel7402 cell strain, read-out: IC50 Bel7402
[7] = HepG2 cell strain, read-out: IC50 HepG2

SMILES | melting point [°C] | IC50 (PLA-801; [1]) [µM] | IC50 (BGC-823; [2]) [µM] | IC50 (Lovo; [3]) [µM] | IC50 (NIH3T3; [4]) [µM] | IC50 (Hela; [5]) [µM] | IC50 (Bel-7402; [6]) [µM] | IC50 (HepG2; [7]) [µM] | IC50 (PLA-801; PLA-801, MTT, read-out: IC50) [µM] | IC50 (BGC-823; BGC823, MTT, read-out: IC50) [µM] | IC50 (Lovo; Lovo, MTT, read-out: IC50) [µM] | IC50 (NIH3T3; NIH3T3, MTT, read-out: IC50) [µM] | IC50 (Hela; Hela, MTT, read-out: IC50) [µM] | IC50 (Bel-7402; BeI7402, MTT, read-out: IC50) [µM] | IC50 (HepG2; HepG2, MTT, read-out: IC50) [µM]
Cc1nc(C(=O)O)cc2c3ccccc3n(CCCc3ccccc3)c12 [Compound 65, 9-phenylpropyl-1-methyl-β-carboline-3-carboxylic acid] | 186 to 188 | 210 | 270 | 50 | 110 | 220 | 560 | 140 |  |  |  |  |  |  | 
OCc1cc2c(cn1)[nH]c1ccccc12 [Compound 24, 3-hydroxymethyl-β-carboline] | 226 to 228 |  |  |  |  |  |  |  | 1080 | 780 | 490 | 360 | 620 | 740 | 580
COC(=O)Nc1cc2c(cn1)[nH]c1ccccc12 [Compound 22, 3-[(methoxycarbonyl)amino]-β-carboline] | 180 to 182 |  |  |  |  |  |  |  | 200 | 210 | 160 | 320 | 170 | 130 | 230
Cc1nc(C(=O)O)cc2c3ccccc3n(C)c12 [Compound 62, 1,9-dimethyl-β-carboline-3-carboxylic acid] | 262 to 264 | 2350 | 640 | 440 | 630 | 1110 | 1500 | 1380 |  |  |  |  |  |  | 
CCCc1nc(C(=O)OCC)cc2c1[nH]c1ccccc12 [Compound 13, ethyl 1-propyl-β-carboline-3-carboxylate] | 194 to 195 |  |  |  |  |  |  |  | 670 | > 3000 | 740 | 750 | > 3000 | > 3000 | 1060
CCCc1nc(C(=O)OCC)cc2c3ccccc3n(CCCc3ccccc3)c12 [Compound 71, ethyl 9-phenylpropyl-1-propyl-β-carboline-3-carboxylate] | 92 to 93 | 260 | 1320 | 60 | 190 | 60 | 910 | 120 |  |  |  |  |  |  | 
CCOC(=O)c1cc2c3ccccc3n(CCCc3ccccc3)c2c(C)n1 [Compound 59, ethyl 9-phenylpropyl-1-methyl-β-carboline-3-carboxylate] | 101 to 102 | 110 | 40 | 20 | 30 | 40 | 180 | 40 |  |  |  |  |  |  | 
CC(=O)COc1cc2c(cn1)[nH]c1ccccc12 [Compound 25, 3-acetylmethoxy-β-carboline] | 131 to 132 |  |  |  |  |  |  |  | 780 | 640 | 250 | 310 | 780 | 590 | 1130
CCOC(=O)Nc1cc2c(cn1)[nH]c1ccccc12 [Compound 23, 3-[(ethoxycarbonyl)amino]-β-carboline] | 221 to 223 |  |  |  |  |  |  |  | 2160 | > 3000 | > 3000 | > 3000 | > 3000 | > 3000 | > 3000

More lines, main results first:

melting point [°C] | SMILES | IC50 (PLA-801; [1]) [µM] | IC50 (BGC-823; [2]) [µM] | IC50 (Lovo; [3]) [µM] | IC50 (NIH3T3; [4]) [µM] | IC50 (Hela; [5]) [µM] | IC50 (Bel-7402; [6]) [µM] | IC50 (HepG2; [7]) [µM] | IC50 (PLA-801; PLA-801, MTT, read-out: IC50) [µM] | IC50 (BGC-823; BGC823, MTT, read-out: IC50) [µM] | IC50 (Lovo; Lovo, MTT, read-out: IC50) [µM] | IC50 (NIH3T3; NIH3T3, MTT, read-out: IC50) [µM] | IC50 (Hela; Hela, MTT, read-out: IC50) [µM] | IC50 (Bel-7402; BeI7402, MTT, read-out: IC50) [µM] | IC50 (HepG2; HepG2, MTT, read-out: IC50) [µM]
155 to 156 | CCOC(=O)c1cc2c3ccccc3n(Cc3ccccc3)c2c(C)n1 [Compound 58, ethyl 9-benzyl-1-methyl-β-carboline-3-carboxylate] | 1390 | 2080 | 170 | 1820 | 250 | 210 | 2000 |  |  |  |  |  |  | 
243 to 245 | CCn1c2ccccc2c2cc(C(=O)O)nc(C)c21 [Compound 63, 9-ethyl-1-methyl-β-carboline-3-carboxylic acid] | 2330 | 1660 | 590 | 710 | 970 | 1820 | 2800 |  |  |  |  |  |  | 
96 to 98 | CCOC(=O)c1cc2c3ccccc3n(CC)c2c(C)n1 [Compound 57, ethyl 9-ethyl-1-methyl-β-carboline-3-carboxylate] | 160 | 70 | 50 | 60 | 60 | 880 | 80 |  |  |  |  |  |  | 
86 to 87 | CCCc1nc(C(=O)OCC)cc2c3ccccc3n(CC)c12 [Compound 69, ethyl 1-propyl-9-ethyl-β-carboline-3-carboxylate] | 710 | 230 | 100 | 100 | 90 | 330 | 110 |  |  |  |  |  |  | 
267 to 269 | Cn1c2ccccc2c2cc(C(=O)O)ncc21 [Compound 34, 9-methyl-β-carboline-3-carboxylic acid] | 270 | 130 | 90 | 130 | 90 | 330 | 150 |  |  |  |  |  |  | 
235 to 238 | CCCCOC(=O)c1cc2c3ccccc3n(C)c2cn1 [Compound 38, butyl 9-methyl-β-carboline-3-carboxylate] | > 3000 | > 3000 | 2520 | > 3000 | > 3000 | > 3000 | 1610 |  |  |  |  |  |  | 
187 to 188 | COC(=O)c1cc2c3ccccc3n(Cc3ccccc3)c2cn1 [Compound 29, methyl 9-benzyl-β-carboline-3-carboxylate] | 480 | 950 | 310 | 360 | 120 | 60 | 1770 |  |  |  |  |  |  | 
169 to 170 | O=C(OCc1ccccc1)c1cc2c3ccccc3n(Cc3ccccc3)c2cn1 [Compound 44, benzyl 9-benzyl-β-carboline-3-carboxylate] | > 3000 | > 3000 | > 3000 | > 3000 | > 3000 | > 3000 | > 3000 |  |  |  |  |  |  | 
181 to 183 | CCCc1nc(C(=O)O)cc2c3ccccc3n(C)c12 [Compound 72, 9-methyl-1-propyl-β-carboline-3-carboxylic acid] | 1400 | 540 | 210 | 570 | 960 | > 3000 | 1170 |  |  |  |  |  |  | 
189 to 191 | CCCc1nc(C(=O)O)cc2c3ccccc3n(CC)c12 [Compound 73, 1-propyl-9-ethyl-β-carboline-3-carboxylic acid] | 710 | 390 | 260 | 390 | 420 | 570 | 540 |  |  |  |  |  |  | 
217 to 218 | CCOC(=O)Nc1cc2c3ccccc3n(CC)c2cn1 [Compound 54, 3-[(ethoxycarbonyl)amino]-9-ethyl-β-carboline] | > 3000 | > 3000 | > 3000 | > 3000 | > 3000 | 1680 | > 3000 |  |  |  |  |  |  | 
158 to 159 | CCCc1nc(C(=O)OCC)cc2c3ccccc3n(Cc3ccccc3)c12 [Compound 70, ethyl 9-benzyl-1-propyl-β-carboline-3-carboxylate] | 160 | 1010 | 1170 | 1570 | 810 | 1010 | 790 |  |  |  |  |  |  | 
139 to 140 | CCOC(=O)c1cc2c3ccccc3n(C)c2cn1 [Compound 30, ethyl 9-methyl-β-carboline-3-carboxylate] | 120 | 150 | 100 | 100 | 180 | 140 | 150 |  |  |  |  |  |  | 
